Assay results reported in patent US9850283B2, “Macrocyclic inhibitors of the PD-1/PD-L1 and CD80(B7-1)/PD-L1 protein/protein interactions” (BRISTOL-MYERS SQUIBB COMPANY, priority 2013, dated 2017).
pIC50: −log10 of the molar value. Where two headings read alike, the source gives them in different places. Starred links: 1 amine or outer side, 2 acyl side, 3 side chain; linkers in the order of their positions; H or OH if unused. Positions of bridges follow the written chain, without caps; N, C: chain ends. Non-standard residues stand in square brackets, D forms with d. Residues, ends and D or L forms follow the SMILES beside them. Pro(trans-4-cHex) = O=C(O)[C@@H]1C[C@@H](C2CCCCC2)CN1; X14 = O=C([C@H](Cc1cc(F)c(F)c(Cl)c1)N[*:1])[*:2]; Trp(7-aza) = N[C@@H](Cc1c[nH]c2ncccc12)C(=O)O; Phe(3,5-F2) = N[C@@H](Cc1cc(F)cc(F)c1)C(=O)O; Phe(4-Cl) = N[C@@H](Cc1ccc(Cl)cc1)C(=O)O; Bta = N[C@@H](Cc1csc2ccccc12)C(=O)O; Hyp = O=C(O)[C@@H]1C[C@@H](O)CN1; NMeF = CN[C@@H](Cc1ccccc1)C(=O)O; NMeNle = CCCC[C@H](NC)C(=O)O; NMeA = CN[C@@H](C)C(=O)O; Orn = NCCC[C@H](N)C(=O)O; Dab = NCC[C@H](N)C(=O)O; Dap = NC[C@H](N)C(=O)O; Sar = CNCC(=O)O

Key:
[1] = biological target: T1, Human PD-L1/PD-1 (Homo sapiens, UniProt Q9NZQ7); assay: HTRF PD-1-Ig/PD-L1-His binding assay (human PD-L1); settings: cluster symbol; read-out: HTRF IC50 cluster
T1 construct: made in house; host or cells: HEK293T
How it was run: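 The time-resolved fluorescence signal comes from Eu-cryptate anti-Ig (1 nM) and APC anti-His (20 nM) antibodies bound to a PD-1-Ig/PD-L1-His complex. Both partners lack transmembrane regions.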

[2] = biological target: T2, LK35.2-hPD-L1 cells / PE-labeled PD-1-Ig (Homo sapiens, UniProt Q9NZQ7); assay: LK35.2-hPD-L1 cell binding high-content screening assay; assay type: cell-based; settings: cluster symbol, read-out: CBA IC50 cluster
T2 construct: expressed in transfected cells; host or cells: LK35.2 mouse B cell line
How it was run: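 Using overnight-cultured LK35.2-hPD-L1 mouse B cells, compound was co-incubated with phycoerythrin-tagged human PD-1-Ig (final 1 nM) at 37 °C for one hour. Unbound label was removed by triple dPBS washing prior to high-content image acquisition and analysis.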

[3] = cell binding assay, cell line not given
[4] = cell line of CBA not given (LK35.2-hPD-L1 or 293T-hPD-L1)

T1 sequence (Q9NZQ7 with tags, fused parts or gaps): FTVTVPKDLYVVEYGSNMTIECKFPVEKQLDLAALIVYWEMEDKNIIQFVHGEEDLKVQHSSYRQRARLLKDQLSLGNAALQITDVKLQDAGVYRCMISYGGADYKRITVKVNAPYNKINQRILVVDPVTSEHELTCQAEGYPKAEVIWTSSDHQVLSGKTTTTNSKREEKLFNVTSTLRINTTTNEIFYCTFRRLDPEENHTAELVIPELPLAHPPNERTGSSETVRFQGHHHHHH
T2 sequence (Q9NZQ7 19-290): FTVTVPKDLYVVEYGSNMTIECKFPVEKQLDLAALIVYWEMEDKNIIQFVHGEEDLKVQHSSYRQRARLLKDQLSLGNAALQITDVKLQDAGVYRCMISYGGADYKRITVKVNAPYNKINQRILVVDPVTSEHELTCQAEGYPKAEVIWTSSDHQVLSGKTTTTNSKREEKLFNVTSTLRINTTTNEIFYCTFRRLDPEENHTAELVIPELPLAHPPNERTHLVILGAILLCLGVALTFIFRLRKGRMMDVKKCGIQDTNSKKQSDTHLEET

Structure (SMILES)	pIC50 [1]	pIC50 [2, 3]	pIC50 [2, 4]
CCCC[C@H]1C(=O)N(C)[C@@H](CCCC)C(=O)N[C@@H](CCN)C(=O)N[C@H](C(=O)NCC(N)=O)CSCC(=O)N[C@@H](Cc2ccc(O)cc2)C(=O)N(C)[C@@H](C)C(=O)N[C@@H](CC(N)=O)C(=O)N2CCC[C@H]2C(=O)N[C@@H](Cc2cnc[nH]2)C(=O)N[C@@H](CCC(=O)O)C(=O)N2C[C@H](O)C[C@H]2C(=O)N[C@@H](Cc2csc3ccccc23)C(=O)N[C@@H](CCN)C(=O)N[C@@H](Cc2c[nH]c3ccccc23)C(=O)N1C [Example 5055] ({CH2CO}-Y[NMeA]NPHE[Hyp][Bta][Dab]W[NMeNle][NMeNle][Dab]CG-NH2; thioether N-14)	< 7.52	< 7.13	
CCCC[C@H]1C(=O)N[C@H](CCC(=O)O)C(=O)N[C@@H](CC(=O)O)C(=O)N[C@@H](C(C)C)C(=O)N(C)[C@@H](Cc2ccccc2)C(=O)N[C@@H](Cc2ccc(O)cc2)C(=O)N(C)CC(=O)N[C@@H](Cc2c[nH]c3ccccc23)C(=O)N[C@@H](Cc2ccc(O)cc2)C(=O)N[C@@H](CC(C)C)C(=O)N[C@H](C(=O)NCC(N)=O)CSCC(=O)N[C@@H](Cc2ccccc2)C(=O)N(C)[C@@H](Cc2ccccc2)C(=O)N1C [Example 3527] (HELM PEPTIDE1{[O=C(C[*:3])[*:2]].F.[meF].[CCCC[C@@H](C(=O)[*:2])N(C)[*:1]].[dE].D.V.[meF].Y.[Sar].W.Y.L.C.G.[am]}$PEPTIDE1,PEPTIDE1,1:R3-14:R3$$$V2.0)	7.52 to 8.17	7.14 to 8.32	
CCCC[C@H]1C(=O)N(C)[C@@H](COc2cccc(C)c2)C(=O)N[C@@H](CCN)C(=O)N[C@H](C(=O)NCC(N)=O)CSCC(=O)N[C@@H](Cc2ccc(O)cc2)C(=O)N(C)[C@@H](C)C(=O)N[C@@H](CC(=O)O)C(=O)N2CCC[C@H]2C(=O)N[C@@H](CN)C(=O)N[C@@H](CCC(=O)O)C(=O)N2C[C@H](O)C[C@H]2C(=O)N[C@@H](Cc2c[nH]c3ccccc23)C(=O)N[C@@H](CO)C(=O)N[C@@H](Cc2c[nH]c3ccccc23)C(=O)N1C [Example 6031]	8.17 to 9.41	7.14 to 8.32	
CCCC[C@H]1C(=O)N(C)[C@@H](CCCC)C(=O)N[C@@H](CCN)C(=O)N[C@H](C(=O)NCC(N)=O)CSCC(=O)N[C@@H](Cc2ccc(O)cc2)C(=O)N(C)[C@@H](C)C(=O)N[C@@H](CC(N)=O)C(=O)N2CCC[C@H]2C(=O)N[C@@H](Cc2c[nH]cn2)C(=O)N[C@@H](CCC(=O)O)C(=O)N2C[C@H](C3CCCCC3)C[C@H]2C(=O)N[C@@H](Cc2c[nH]c3ccccc23)C(=O)N[C@@H](CCN)C(=O)N[C@@H](Cc2c[nH]c3ccccc23)C(=O)N1C [Example 14005] ({CH2CO}-Y[NMeA]NPHE[Pro(trans-4-cHex)]W[Dab]W[NMeNle][NMeNle][Dab]CG-NH2; thioether N-14)	8.17 to 9.41	8.33 to 9.80	
CCCC[C@H]1C(=O)N(C)[C@@H](CCCC)C(=O)N[C@@H](CCCNC(=N)N)C(=O)N[C@H](C(=O)NCC(N)=O)CSCC(=O)N[C@@H](Cc2ccccc2)C(=O)N(C)[C@@H](C)C(=O)N[C@@H](CC(N)=O)C(=O)N2CCC[C@H]2C(=O)N[C@@H](Cc2cnc[nH]2)C(=O)N[C@@H](Cc2ccc(O)cc2)C(=O)N(C)CC(=O)N[C@@H](Cc2c[nH]c3ccccc23)C(=O)N[C@@H](CO)C(=O)N[C@@H](Cc2c[nH]c3ccccc23)C(=O)N1C [Example 6014] ({CH2CO}-F[NMeA]NPHY[Sar]WSW[NMeNle][NMeNle]RCG-NH2; thioether N-14)	7.52 to 8.17	7.14 to 8.32	
CCCC[C@H]1C(=O)N(C)CC(=O)N[C@@H](CC(=O)O)C(=O)N[C@@H](C(C)C)C(=O)N(C)[C@@H](Cc2ccccc2)C(=O)N[C@@H](Cc2ccc(O)cc2)C(=O)N(C)CC(=O)N[C@@H](Cc2c[nH]c3ccccc23)C(=O)N[C@@H](Cc2ccc(O)cc2)C(=O)N[C@@H](CC(C)C)C(=O)N[C@H](C(=O)NCC(N)=O)CSCC(=O)N[C@@H](Cc2cc(F)cc(F)c2)C(=O)N(C)[C@@H](Cc2ccccc2)C(=O)N1C [Example 3143] ({CH2CO}-[Phe(3,5-F2)][NMeF][NMeNle][Sar]DV[NMeF]Y[Sar]WYLCG-NH2; thioether N-13)	7.52 to 8.17		8.33 to 9.80
CCCC[C@H]1C(=O)N(C)CC(=O)N[C@@H](CC(=O)O)C(=O)N[C@@H](C(C)C)C(=O)N(C)[C@@H](Cc2ccccc2)C(=O)N[C@@H](Cc2ccc(O)cc2)C(=O)N(C)CC(=O)N[C@@H](Cc2c[nH]c3ccccc23)C(=O)N[C@@H](Cc2ccc(O)cc2)C(=O)N[C@@H](Cc2ccc(O)cc2)C(=O)N[C@H](C(=O)NCC(N)=O)CSCC(=O)N[C@@H](Cc2ccccc2)C(=O)N(C)[C@@H](Cc2ccccc2)C(=O)N1C [Example 3519] (HELM PEPTIDE1{[O=C(C[*:3])[*:2]].F.[meF].[CCCC[C@@H](C(=O)[*:2])N(C)[*:1]].[Sar].D.V.[meF].Y.[Sar].W.Y.Y.C.G.[am]}$PEPTIDE1,PEPTIDE1,1:R3-14:R3$$$V2.0)	7.52 to 8.17	7.14 to 8.32	

Next, values leading:

pIC50 [1]	pIC50 [2, 3]	pIC50 [2, 4]	Structure (SMILES)
8.17 to 9.41		8.33 to 9.80	CCCC[C@H]1C(=O)N(C)[C@@H](CCCC)C(=O)N[C@@H](CCCN)C(=O)N[C@H](C(=O)NCC(N)=O)CSCC(=O)N[C@@H](Cc2ccc(O)cc2)C(=O)N(C)[C@@H](C)C(=O)N[C@@H](CC(N)=O)C(=O)N2CCC[C@H]2C(=O)N[C@@H](CN)C(=O)N[C@@H](CC(C)C)C(=O)N2C[C@H](O)C[C@H]2C(=O)N[C@@H](Cc2c[nH]c3ccccc23)C(=O)N[C@@H](CO)C(=O)N[C@@H](Cc2csc3ccccc23)C(=O)N1C [Example 1139] ({CH2CO}-Y[NMeA]NP[Dap]L[Hyp]WS[Bta][NMeNle][NMeNle][Orn]CG-NH2; thioether N-14)
< 7.52		< 7.13	CCCC[C@H]1C(=O)N(C)[C@@H](CCCC)C(=O)N[C@@H](CCCNC(=N)N)C(=O)N[C@H](C(=O)NCC(N)=O)CSCC(=O)N[C@@H](Cc2ccccc2)C(=O)N(C)[C@@H](C)C(=O)N[C@@H](CC(N)=O)C(=O)N2CCC[C@H]2C(=O)N[C@@H](Cc2cnc[nH]2)C(=O)N[C@@H](CC(C)C)C(=O)N(C)CC(=O)N[C@@H](Cc2c[nH]c3ccccc23)C(=O)N[C@@H](CO)C(=O)N[C@@H](Cc2c[nH]c3ncccc23)C(=O)N1C [Example 1038] ({CH2CO}-F[NMeA]NPHL[Sar]WS[Trp(7-aza)][NMeNle][NMeNle]RCG-NH2; thioether N-14)
7.52 to 8.17		7.14 to 8.32	CCCC[C@H]1C(=O)N(C)[C@@H](CCCC)C(=O)N[C@@H](CCCNC(=N)N)C(=O)N[C@H](C(=O)NCC(N)=O)CSCC(=O)N[C@@H](Cc2ccc(Cl)cc2)C(=O)N(C)[C@@H](C)C(=O)N[C@@H](CC(N)=O)C(=O)N2CCC[C@H]2C(=O)N[C@@H](Cc2cnc[nH]2)C(=O)N[C@@H](CC(C)C)C(=O)N2CCC[C@H]2C(=O)N[C@@H](Cc2c[nH]c3ccccc23)C(=O)N[C@@H](CO)C(=O)N[C@@H](Cc2c[nH]c3ccccc23)C(=O)N1C [Example 1117] ({CH2CO}-[Phe(4-Cl)][NMeA]NPHLPWSW[NMeNle][NMeNle]RCG-NH2; thioether N-14)
< 7.52		< 7.13	CCCC[C@H]1C(=O)N(C)[C@@H](CCCC)C(=O)N[C@@H](CCCNC(=N)N)C(=O)N[C@@H](C(=O)NCC(N)=O)CSCC(=O)N[C@@H](Cc2cnc[nH]2)C(=O)N(C)[C@@H](C)C(=O)N[C@@H](CC(N)=O)C(=O)N2CCC[C@H]2C(=O)N[C@@H](Cc2cnc[nH]2)C(=O)N[C@@H](CC(C)C)C(=O)N(C)CC(=O)N[C@@H](Cc2c[nH]c3ccccc23)C(=O)N[C@@H](CO)C(=O)N[C@@H](Cc2c[nH]c3ccccc23)C(=O)N1C [Example 1072] ({CH2CO}-H[NMeA]NPHL[Sar]WSW[NMeNle][NMeNle]R[dC]G-NH2; thioether N-14)
7.52 to 8.17		8.33 to 9.80	CCCC[C@H]1C(=O)N(C)[C@@H](CCCC)C(=O)N[C@@H](C)C(=O)N[C@H](C(=O)NCC(N)=O)CSCC(=O)N[C@@H](Cc2ccc(O)cc2)C(=O)N(C)[C@@H](C)C(=O)N[C@@H](CC(=O)O)C(=O)N2CCC[C@H]2C(=O)N[C@@H](CN)C(=O)N[C@@H](CC(C)C)C(=O)N2C[C@H](O)C[C@H]2C(=O)N[C@@H](Cc2c[nH]c3ccccc23)C(=O)N[C@@H](CO)C(=O)N[C@@H](Cc2c[nH]c3ccccc23)C(=O)N1C [Example 1138] ({CH2CO}-Y[NMeA]DP[Dap]L[Hyp]WSW[NMeNle][NMeNle]ACG-NH2; thioether N-14)
7.52 to 8.17		8.33 to 9.80	CCCC[C@H]1C(=O)N(C)CC(=O)N[C@@H](CC(=O)O)C(=O)N[C@@H](C(C)C)C(=O)N(C)[C@@H](Cc2ccccc2)C(=O)N[C@@H](Cc2ccc(O)cc2)C(=O)N(C)CC(=O)N[C@@H](Cc2c[nH]c3ccccc23)C(=O)N[C@@H](Cc2ccc(O)cc2)C(=O)N[C@@H](CC(C)C)C(=O)N[C@H](C(=O)NCC(N)=O)CSCC(=O)N[C@@H](Cc2cc(F)c(F)c(Cl)c2)C(=O)N(C)[C@@H](Cc2ccccc2)C(=O)N1C [Example 3186] ({CH2CO}-[X14][NMeF][NMeNle][Sar]DV[NMeF]Y[Sar]WYLCG-NH2; thioether N-13)
< 7.52	< 7.13		CCCC[C@H]1C(=O)N(C)[C@@H](CCCC)C(=O)N[C@@H](CCCNC(=N)N)C(=O)N[C@H](C(=O)NCC(N)=O)CSCC(=O)N[C@@H](Cc2ccc(O)cc2)C(=O)N(C)[C@@H](C)C(=O)N[C@@H](CC(N)=O)C(=O)N2CCC[C@H]2C(=O)N[C@@H](Cc2cnc[nH]2)C(=O)N[C@@H](CCC(=O)O)C(=O)N2C[C@H](O)C[C@H]2C(=O)N[C@@H](Cc2csc3ccccc23)C(=O)N[C@@H](CCN)C(=O)N[C@@H](Cc2c[nH]c3ccccc23)C(=O)N1C [Example 5052] ({CH2CO}-Y[NMeA]NPHE[Hyp][Bta][Dab]W[NMeNle][NMeNle]RCG-NH2; thioether N-14)
